The target of one data set is T1, human IRAK4 (Homo sapiens, UniProt Q9NWZ3).
T1 construct: purchased Reaction Biology Corp
T1 sequence (Q9NWZ3 1-460): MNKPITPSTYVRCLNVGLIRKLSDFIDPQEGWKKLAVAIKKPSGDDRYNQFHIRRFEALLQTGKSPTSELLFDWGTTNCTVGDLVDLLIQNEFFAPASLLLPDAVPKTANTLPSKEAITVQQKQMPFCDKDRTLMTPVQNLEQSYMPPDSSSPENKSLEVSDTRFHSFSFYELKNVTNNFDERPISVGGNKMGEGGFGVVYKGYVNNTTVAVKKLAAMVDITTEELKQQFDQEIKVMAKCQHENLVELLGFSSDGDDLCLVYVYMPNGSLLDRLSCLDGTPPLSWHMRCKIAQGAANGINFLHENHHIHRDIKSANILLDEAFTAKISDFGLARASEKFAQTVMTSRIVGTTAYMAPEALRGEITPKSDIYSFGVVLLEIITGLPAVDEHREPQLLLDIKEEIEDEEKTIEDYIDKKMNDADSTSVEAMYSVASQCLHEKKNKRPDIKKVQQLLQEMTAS
The data set can be described thus: 33P-labeled kinase activity assay (in vitro enzymatic activity evaluation). In kind it is biochemical. On the procedure: The inhibitory activity of the test compounds against human IRAK4 was evaluated by determining IC50 values in a ^33P-labeled kinase activity assay (Reaction Biology Corp).
Buffer conditions: 20 mM Hepes (pH 7.5), 10 mM MgCl2, 1 mM EGTA, 0.02% Brij35, 0.02 mg/mL BSA, 0.1 mM Na3VO4, 2 mM DTT, 1% DMSO.
Procedures: The test compound was dissolved in DMSO at room temperature to prepare a 10 mM solution for later use. The substrates were dissolved in freshly formulated buffers. The kinase was added, and mixture was stirred homogeneously. The DMSO solution containing the test compound was added to the above mixed reaction system by an acoustic technique (Echo 550). After 15 minutes of incubation, the reaction was started by adding ^33P-ATP. After 120 minutes of reaction at room temperature, the resulting solution was loaded on P81 ion exchange chromatography paper sheet (Whatman #3698-915). After repeated washings with 0.75% phosphoric acid solution, the radioactivity of the phosphorylated substrate residue on the paper sheet was measured. The kinase activity data are shown as a comparison of the kinase activity of the test compound and the kinase activity of the blank (DMSO only) and a curve was fitted using Prism4 software (GraphPad) to give IC50 values, with the experimental results shown in Table 5.

In data set [1] the test system is human B-cell lymphoma OCI-LY10 cells subcutaneous xenograft tumor. The data set can be described thus: In vivo pharmacodynamic study in OCI-LY10 subcutaneous xenograft tumor mouse model. Particulars: ibrutinib 10 mpk, WX005 50 mpk; for T/C value / TGI value: day 18 after start of administration, WX005 + ibrutinib 50+10 mpk. On the procedure: The purpose of this experiment was to evaluate the efficacy of test drug WX005 on human B-cell lymphoma OCI-LY10 cell subcutaneous xenograft tumors in a CB17 SCID mouse model in vivo.
OCI-LY10 human B cell lymphoma cells, cultured in a 5% CO2 incubator at 37° C.
OCI-LY10 tumor cells were subcultured. 0.2 mL (1×10^7 cells) of OCI-LY10 cells (along with matrigel in a volume ratio of 1:1) was subcutaneously inoculated on the right back of each […], and the mice were administered in groups when the average tumor volume was 167 mm^3. Animals were monitored daily for health and death, and routine examinations include observation of the effect of tumor growth and drug treatment on the daily performance of the animals, such as behavioral activities, food and water intake, weight changes (twice weekly), tumor size (twice weekly for tumor volume), appearance signs, or other abnormal conditions.
The experimental indices were to investigate whether tumor growth was inhibited or delayed or the tumor was cured. The procedures comprised measuring tumor volume (TV), and calculating the tumor inhibiting therapeutic effect TGI (%) or relative tumor proliferation rate T/C (%) of the compound. TV=0.5a×b^2, where a and b represent the long diameter and short diameter of the tumor, respectively.
T/C%=TRTV/CRTV×100% (TRTV: RTV of treatment group; CRTV: RTV of negative control group). Relative tumor volume (RTV) was calculated based on the results of tumor measurement. The calculation formula was: RTV=Vt/V0, wherein Vo was the average tumor volume measured at the time of grouping and administration (i.e., d0), Vt was the average tumor volume at a certain measurement, and the data of TRTV and CRTV were obtained on the same day.

In another data set the test system is THP-1 cells. The data set can be described thus: cells. Particulars: Homo sapiens, THP-1, 18 h, read-out: THP-1/IC50. On the procedure:
TNF-α ELISA in THP-1 cells
THP-1 human acute […] leukemia cells were purchased from ATCC (Cat # TIB-202) and incubated in a5% CO2 incubator at 37° C. The medium was RPMI1640 (Gibco, Cat # 22400-105), the supplementary was 10% FBS (Gibco, Cat # 10091148); 1% PenStrep (Gibco, Cat # 15140); 0.05 mM 2-mercaptoethanol (Sigma, Cat # M6250).
TNF-α content in the cell culture supernatant was measured by a TNF-α Elisa kit. TNF-α was produced by stimulation of THP-1 cells with 150 ng/mL LPS (Sigma, Cat # L6529). Normal THP-1 cells in logarithmic phase were seeded in 96-well plates (Corning #3599) at a certain concentration (1×10^5/100 μL) and then incubated in an incubator. After two hours, 16.7 μL of test compound of different concentrations (8×final concentration) was added and the mixture was incubated in the incubator. After one hour, 16.7 μL of 1200 ng/mL LPS was added and the mixture was incubated in the incubator. After 18 h, the culture was centrifuged and the probe of the supernatant was collected. The TNF-α content was measured by a TNF-α Elisa kit. Finally, the OD signals (OD450-OD570) were read on an envision plate reader.
The OD450-OD570 signals were converted to percent inhibition.
Inhibition%=(ZPE−sample)/(ZPE−HPE)×100.
“HPE” represents the OD450-OD570 signal value of the control well without LPS-stimulated cells, and “ZPE” represents the OD450-OD570 signal value of the control well with LPS-stimulated cells.
IC50 values for compounds were calculated by XLFit in the Excel.
Equation:y=Bottom+(Top-Bottom)/(1+(IC50/X)^ HillSlope).

The subject of data set [2] is lipopolysaccharide (LPS)-induced TNF-α secretion. The data set can be described thus: Pharmacodynamic study of LPS-induced TNF-α secretion in SD rats. Particulars: oral. In kind it is in vivo. On the procedure: SD rats were orally administered with a solvent, dexamethasone (DEX, 0.5 mg/kg) as positive control, and the test compound, and were intraperitoneally injected with LPS (1 mg/kg) 0.5 hours after the administration. Animals were euthanized with CO2 2 h after LPS injection. Cardiac blood was collected into EDTA-K2 vacutainers, and a part of the anticoagulated blood was centrifuged and the plasma was frozen at −80° C.
Frozen plasma was thawed at room temperature and the concentration of TNF-α in the plasma was measured using ELISA kit.
The experimental data were expressed using mean±SEM, and TNF-α levels were analyzed by One-way ANOVA. Significant differences were considered for p<0.05.

For data set [3], the system named is collagen-induced arthritis. The data set can be described thus: In vivo efficacy assay of collagen-induced mouse arthritis. Set-up: species or system DBA/1 mice. Particulars: 100 mg/kg twice daily for 14 days, oral gavage. On the procedure:
The purpose of this experiment was to investigate the therapeutic effect of compound WX005 in a mouse model of collagen-induced arthritis.
Animals: male DBA/1 mice aged 6-8 weeks; supplier: Vital River.
Grouping: Among 39 DBA/1 mice, 5 mice were randomly selected as normal controls, and the other 34 were immunized. The day of the first immunization was recorded as Day 0. During modeling, DBA/1 mice were anesthetized with isoflurane and sensitized by injecting 50 microliters of prepared collagen emulsion (containing 200 micrograms of CII) subcutaneously on the tail (2-3 cm from the root of the tail). On Day 23, 100 microliters of 0.3 mg/mL LPS solution (containing 30 micrograms of LPS) was intraperitoneally injected. Mice in the normal group were not immunized.
On Day 26, when the average clinical score reached about 0.8, 24 mice with clinical scores of 0-1 were selected, and the mice were randomly grouped into 3 treatment groups of 8 according to the body weight and the score. […]
Clinical observation: the general health and body weight changes of DBA/1 mice were observed daily from 7 days before immunization to Day 23 after immunization (recorded once weekly). After Day 23, mice were observed daily for health, morbidity, and weight changes (recorded at least three times a week) until the end of assay. […]

As for `CC(C)(O)CCc1cn2cc(NC(=O)c3cccc(C(F)(F)F)n3)c(N3CCOCC3)cc2n1` [WX001], the IC50 at human IRAK4 is 2.2 nM. On the same count and under the same terms, under `CCOc1cc2nc(CCC(C)(C)O)cn2cc1NC(=O)c1cccc(C(F)(F)F)n1` [WX014] stands 1.7 nM. Turning to `C=CC(=O)N1CCC[C@@H](n2nc(-c3ccc(Oc4ccccc4)cc3)c3c(N)ncnc32)C1` [ibrutinib, reference compound], in data set [1], the T/C value worked out at 39% and the TGI value stood at 85%. In turn, `CC(C)(O)CCc1cn2cc(NC(=O)c3cccc(C(F)(F)F)n3)c(C3CC3)cc2n1` [WX013] yielded an IC50 on human IRAK4 of 3.6 nM. `CC(C)(O)CCc1cn2cc(NC(=O)c3cccc(C(F)(F)F)n3)c(N3CCCCC3)cc2n1` [WX003]: the IC50 against human IRAK4 was found to be 1.2 nM. On the same count and under the same terms, under `CC1(O)CCN(c2cc3nc(CCC(=O)O)cn3cc2NC(=O)c2cccc(C(F)(F)F)n2)CC1` [WX018] stands 9.8 nM; under `CC(=O)N1CCN(c2cc3nc(CCC(C)(C)O)cn3cc2NC(=O)c2cccc(C(F)(F)F)n2)CC1` [WX004], 4.6 nM.

`CC(C)(O)CCc1cn2cc(NC(=O)c3cccc(C(F)(F)F)n3)c(N3CCC(C)(O)CC3)cc2n1` [WX015]: the values for the IC50 on human IRAK4 and in the data set with THP-1 cells were 0.7 nM and 201 nM, respectively. `O=C(O)CCc1cn2cc(NC(=O)c3cccc(C(F)(F)F)n3)c(N3CCC(CO)CC3)cc2n1` [WX021] showed an IC50 at human IRAK4 of 7.1 nM. On the same count and under the same terms, next, `NC(=O)C1CCN(c2cc3nc(CCC(=O)O)cn3cc2NC(=O)c2cccc(C(F)(F)F)n2)CC1` [WX019]: 19.4 nM; `CS(=O)(=O)CCc1cn2cc(NC(=O)c3cccc(C(F)(F)F)n3)c(N3CCC(O)CC3)cc2n1` [WX023]: 1.3 nM. Regarding `CC(C)(O)CCc1cn2cc(NC(=O)c3cccc(C(F)(F)F)n3)c(N3CCC(C(N)=O)CC3)cc2n1` [WX016], the IC50 was 1.2 nM at human IRAK4 and 181 nM in the data set with THP-1 cells. The molecule `CC(C)(O)CCc1cn2cc(NC(=O)c3cccc(C(F)(F)F)n3)c(N3CCC(CN)CC3)cc2n1` [WX017] showed an IC50 at human IRAK4 of 1.3 nM. The molecule `CC(C)(O)CCc1cn2cc(NC(=O)c3cccc(C(F)(F)F)n3)c(N3CCC(CO)CC3)cc2n1` [WX007] registered an IC50 against human IRAK4 of 0.9 nM.

At human IRAK4, `CC(C)(O)CCc1cn2cc(NC(=O)c3cccc(C(F)(F)F)n3)c(N3CCNCC3)cc2n1` [WX008] came in with an IC50 of 1.5 nM. The same measure, in the same setting: next, `CC(C)(O)CCc1cn2cc(NC(=O)c3cccc(C(F)(F)F)n3)c(N3CCCC(O)C3)cc2n1` (stereo not shown) [WX006]: 3.8 nM.

At human IRAK4, `CC(C)(O)CCc1cn2cc(NC(=O)c3cccc(C(F)(F)F)n3)c(N3CCC(O)CC3)cc2n1` [WX005] registered an IC50 of 1.3 nM. Further, the IC50 with THP-1 cells was 114 nM. Further, the “inhibitory effect on LPS-induced TNF-α secretion (plasma TNF-α)” value in data set [2] (LPS 1 mg/kg i.p. 0.5 h after administration, plasma 2 h after LPS) was “significant inhibitory effect”. Also, the “potency on LPS-induced TNF-α secretion compared with dexamethasone” value in data set [2] (WX005 30 mpk vs dexamethasone (DEX) 0.5 mpk) was “potency equivalent to that of dexamethasone”. For the same molecule, the “dose-response of inhibition of LPS-induced TNF-α secretion” value in data set [2] (doses 3 mpk, 10 mpk, 30 mpk) was “clear dose-response relationship”. Besides, the “tolerability (body weight, abnormality) in tumor-bearing mice” value in data set [1] (18 days of treatment) is recorded as “good tolerability in animals”. In addition, in data set [1], the T/C value is 53% and the TGI value stood at 66%. Further, in data set [3], the “body weight of the mice” value is “increased steadily” and the “clinical score of arthritis (efficacy)” value is on record as “excellent efficacy”. With `CC1(O)CCN(c2cc3nc(CCS(C)(=O)=O)cn3cc2NC(=O)c2cccc(C(F)(F)F)n2)CC1` [WX025], on human IRAK4, the IC50 came to 0.5 nM.

On to `CC(C)(O)CCc1cn2cc(NC(=O)c3cccc(C(F)(F)F)n3)c(C(C)(C)O)cc2n1` [WX002], for which the IC50 at human IRAK4 stood at 0.4 nM; with THP-1 cells, 54 nM.

With `COC(=O)N1CCN(c2cc3nc(CCC(C)(C)O)cn3cc2NC(=O)c2cccc(C(F)(F)F)n2)CC1` [WX010], on human IRAK4, the IC50 worked out at 4.6 nM. The molecule `NCC1CCN(c2cc3nc(CCC(=O)O)cn3cc2NC(=O)c2cccc(C(F)(F)F)n2)CC1` [WX020] yielded an IC50 at human IRAK4 of 20.5 nM.

The values above are taken from US20220227758A1, “IMIDAZOPYRIDINE COMPOUND AS IRAK4 INHIBITOR” (MEDSHINE DISCOVERY INC., priority 2019, published 2022).
